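48-hour exposure; five concentrations; linearly interpolated endpoints. At the GI50, growth is halved.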 Calls of active or inactive are those of the source. Rule as the data show it: active = GI50 up to about 1.1 µM and inactive = higher.
Key:
Test in all cases: NCI-60 cell line screen, 48 h
SK-OV-3 = system: SK-OV-3
HOP-62 = system: HOP-62
SK-MEL-28 = system: SK-MEL-28
CAKI-1 = system: CAKI-1
HCT-15 = system: HCT-15
NCI-H226 = system: NCI-H226
NCI-H460 = system: NCI-H460
U-251 = system: U-251
OVCAR-8 = system: OVCAR-8
ACHN = system: ACHN
SNB-75 = system: SNB-75
RPMI-8226 = system: RPMI-8226
SNB-19 = system: SNB-19
786-0 = system: 786-0
HOP-92 = system: HOP-92
RXF 393 = system: RXF 393

Compound	GI50 (SK-OV-3)	GI50 (HOP-62)	GI50 (SK-MEL-28)	GI50 (CAKI-1)	GI50 (HCT-15) [µM]	GI50 (NCI-H226)	GI50 (NCI-H460)	GI50 (U-251)	GI50 (OVCAR-8)	GI50 (ACHN)	GI50 (SNB-75)	GI50 (RPMI-8226)	GI50 (SNB-19)	GI50 (786-0)	GI50 (HOP-92)	GI50 (RXF 393)
c1ccc2c(c1)CCc1c(-c3ccncc3)n[nH]c1-2	33.4 µM (inactive)	28.4 µM (inactive)	23.8 µM (inactive)	19.8 µM (inactive)	32.1	23 µM (inactive)	32.1 µM (inactive)	13.6 µM (inactive)	29.4 µM (inactive)	26.5 µM (inactive)	26.3 µM (inactive)	26.5 µM (inactive)	27.7 µM (inactive)	37.8 µM (inactive)		
O=C(O)C1=C(C(=O)Nc2ccccc2)C2C=CC1C2 (configuration not stated)	> 100 µM (inactive)	> 100 µM (inactive)	> 100 µM (inactive)		> 100		> 100 µM (inactive)	> 100 µM (inactive)	> 100 µM (inactive)	> 100 µM (inactive)	> 100 µM (inactive)	> 100 µM (inactive)	> 100 µM (inactive)	> 100 µM (inactive)	> 100 µM (inactive)	> 100 µM (inactive)
OC1(c2ccccc2)OC(C#Cc2ccccc2)(c2ccccc2)c2ccccc21 (configuration not stated)	1.46 µM (inactive)	15.4 µM (inactive)		3.85 µM (inactive)	3.44	2.62 µM (inactive)	4.47 µM (inactive)	4.12 µM (inactive)	2.45 µM (inactive)		6.1 µM (inactive)	1.94 µM (inactive)	13.2 µM (inactive)	3.73 µM (inactive)	4 µM (inactive)	1.95 µM (inactive)
COC(=O)C1=C(CO)C2C=CC1C2 (configuration not stated)	> 100 µM (inactive)	> 100 µM (inactive)		> 100 µM (inactive)	> 100	> 100 µM (inactive)	> 100 µM (inactive)	> 100 µM (inactive)	> 100 µM (inactive)	> 100 µM (inactive)	> 100 µM (inactive)	> 100 µM (inactive)	> 100 µM (inactive)	> 100 µM (inactive)		> 100 µM (inactive)
CCOC(=O)c1c2cccccc2n2c(=O)cc(C)nc12		> 100 µM (inactive)	> 100 µM (inactive)	> 100 µM (inactive)	> 100	> 100 µM (inactive)	> 100 µM (inactive)	> 100 µM (inactive)	> 100 µM (inactive)	> 100 µM (inactive)		> 100 µM (inactive)	> 100 µM (inactive)	> 100 µM (inactive)		> 100 µM (inactive)
c1ccc(C2N=NN(c3ccccc3)C2N2CCCCC2)cc1 (configuration not stated)	38.6 µM (inactive)	42.9 µM (inactive)	> 100 µM (inactive)	> 100 µM (inactive)	> 100	> 100 µM (inactive)		56 µM (inactive)	> 10 µM (inactive)	> 100 µM (inactive)	20 µM (inactive)	> 100 µM (inactive)	> 100 µM (inactive)	64.7 µM (inactive)	17.3 µM (inactive)	
Cc1ccc(NC(=O)c2nc(S)nc(N)c2-c2ccccc2C)cc1C	> 100 µM (inactive)		> 100 µM (inactive)	> 100 µM (inactive)	> 100	> 100 µM (inactive)	> 100 µM (inactive)	> 100 µM (inactive)	> 100 µM (inactive)	> 100 µM (inactive)	> 100 µM (inactive)	> 100 µM (inactive)	> 100 µM (inactive)	> 100 µM (inactive)	> 100 µM (inactive)	> 100 µM (inactive)
Nc1nc(N)c(N=O)c(Nc2ccc(I)cc2)n1	5.33 µM (inactive)	16.6 µM (inactive)	14 µM (inactive)		12.2		27.5 µM (inactive)	25.3 µM (inactive)	29.4 µM (inactive)	24 µM (inactive)		20.9 µM (inactive)	30.1 µM (inactive)	25.5 µM (inactive)		17.9 µM (inactive)
N#CC1([N+](=O)[O-])C=C1c1ccccc1 (configuration not stated)	> 100 µM (inactive)	> 100 µM (inactive)		82.4 µM (inactive)	36.7	95.3 µM (inactive)	51.2 µM (inactive)	> 100 µM (inactive)	> 100 µM (inactive)	38.6 µM (inactive)		19.5 µM (inactive)	> 100 µM (inactive)	28.8 µM (inactive)		
CC(C)(C)c1cc(CCC(=O)Nc2ccc(Cl)cc2Cl)nc(N)n1	> 100 µM (inactive)	> 100 µM (inactive)	> 100 µM (inactive)	> 100 µM (inactive)	> 100	> 100 µM (inactive)	> 100 µM (inactive)	> 100 µM (inactive)	> 100 µM (inactive)	> 100 µM (inactive)			> 100 µM (inactive)	> 100 µM (inactive)	91.6 µM (inactive)	> 100 µM (inactive)
O=C1CNS(=O)(=O)N1	> 100 µM (inactive)	> 100 µM (inactive)	> 100 µM (inactive)	> 100 µM (inactive)		14.5 µM (inactive)			> 100 µM (inactive)		> 100 µM (inactive)	> 100 µM (inactive)	> 100 µM (inactive)	> 100 µM (inactive)	> 100 µM (inactive)	
Cc1ccc(NC(=O)CC2SC(Nc3cccc(Cl)c3C)=NC2=O)cc1 (configuration not stated)	> 100 µM (inactive)	> 100 µM (inactive)	40.9 µM (inactive)	71.4 µM (inactive)	76.9		96.6 µM (inactive)	50.4 µM (inactive)	40.6 µM (inactive)	41 µM (inactive)	> 100 µM (inactive)	28.2 µM (inactive)	40.4 µM (inactive)	> 100 µM (inactive)		
CC1CCCC(C(=O)/C(=C/c2cccc(Cl)c2)C(=O)C(=O)O)C1 (configuration not stated)	81.5 µM (inactive)	> 100 µM (inactive)	37 µM (inactive)	33.3 µM (inactive)	13.8	> 100 µM (inactive)	33 µM (inactive)	17.3 µM (inactive)	20.3 µM (inactive)	39.4 µM (inactive)	29.9 µM (inactive)	14.7 µM (inactive)	33.8 µM (inactive)	17.9 µM (inactive)	39 µM (inactive)	
Cc1nc(=O)n2c(C)n[nH]c2c1C(=O)Nc1cc(Cl)cc(Cl)c1	29 µM (inactive)	25.6 µM (inactive)	26.1 µM (inactive)	36.9 µM (inactive)	19.3	24.8 µM (inactive)	26.9 µM (inactive)	21.1 µM (inactive)	45.5 µM (inactive)	20 µM (inactive)	37.2 µM (inactive)	9.91 µM (inactive)		28.4 µM (inactive)	17.5 µM (inactive)	11.9 µM (inactive)
OCCC1(O)CCC(O)CC1 (configuration not stated)	> 100 µM (inactive)	> 100 µM (inactive)	> 100 µM (inactive)		> 100	> 100 µM (inactive)	> 100 µM (inactive)	> 100 µM (inactive)	> 100 µM (inactive)		75.7 µM (inactive)	> 100 µM (inactive)	> 100 µM (inactive)	> 100 µM (inactive)	> 100 µM (inactive)	
NC(CCSCC(F)(F)F)C(=O)O (configuration not stated)		> 100 µM (inactive)	> 100 µM (inactive)	> 100 µM (inactive)	> 100	> 100 µM (inactive)	> 100 µM (inactive)	> 100 µM (inactive)	> 100 µM (inactive)	> 100 µM (inactive)	> 100 µM (inactive)		> 100 µM (inactive)	> 100 µM (inactive)	> 100 µM (inactive)	> 100 µM (inactive)
COc1cc(C2c3cc4c(cc3[C@@H](N(C)C)[C@H]3COC(=O)C23)OCO4)cc(OC)c1O (some centres not stated)	37 µM (inactive)	50.4 µM (inactive)	14.5 µM (inactive)	23.7 µM (inactive)	31.1	> 100 µM (inactive)	31.2 µM (inactive)	34 µM (inactive)	25.5 µM (inactive)	41.5 µM (inactive)	93.3 µM (inactive)	92.3 µM (inactive)		33.2 µM (inactive)	11.2 µM (inactive)	86.7 µM (inactive)
C[C@]12CCCC(=O)C1(O)C[C@H](C(=O)O)CC2 (some centres not stated)	> 100 µM (inactive)	> 100 µM (inactive)	> 100 µM (inactive)	> 100 µM (inactive)	> 100	> 100 µM (inactive)	> 100 µM (inactive)	> 100 µM (inactive)	> 100 µM (inactive)	> 100 µM (inactive)	> 100 µM (inactive)	> 100 µM (inactive)	> 100 µM (inactive)	> 100 µM (inactive)	> 100 µM (inactive)	
COc1cccc2c1C(=O)c1c(O)c3c(c(O)c1C2=O)C[C@@](O)(C(=O)CO)CC3OC1CC(N(C)CCOCC(OC(C)=O)OC(C)=O)C(O)C(C)O1 (some centres not stated)	> 0.01 µM (active)	> 0.01 µM (active)	> 0.01 µM (active)	> 0.01 µM (active)		> 0.01 µM (active)	> 0.01 µM (active)	> 0.01 µM (active)	> 0.01 µM (active)	> 0.01 µM (active)	> 0.01 µM (active)	> 0.01 µM (active)	> 0.01 µM (active)	> 0.01 µM (active)	> 0.01 µM (active)	> 0.01 µM (active)
CC(O)(c1ccc(OCCC[N+](C)(C)C)cc1)C(C)(O)c1ccc(OCCC[N+](C)(C)C)cc1 (configuration not stated)	> 100 µM (inactive)	> 100 µM (inactive)	> 100 µM (inactive)	> 100 µM (inactive)	> 100	> 100 µM (inactive)	> 100 µM (inactive)	> 100 µM (inactive)	> 100 µM (inactive)	> 100 µM (inactive)	> 100 µM (inactive)		> 100 µM (inactive)	> 100 µM (inactive)	> 100 µM (inactive)	> 100 µM (inactive)

From ChEMBL document CHEMBL1201862, “PubChem BioAssay data set” (2004)
